From patent US9187415B2, “Sulfonamides as HIV protease inhibitors” (Merck Canada Inc., priority 2010, dated 2015)
Like-named read-outs stand apart in the source and are kept apart here.

Legend:
[1] = tested on: human immunodeficiency virus type 1; assay: Acute Infection Assay (Spread); format: cell-based, HIV-1; settings: Human immunodeficiency virus 1; 10% FBS; mean of at least two independent experiments; read-out: Spread IC95
From the text: Acute Infection Assay (“Spread”) data were generated in 10% FBS, and according to the methods disclosed by J. P. Vacca et al, “L-735,524: An orally bioavailable human immunodeficiency virus type 1 protease inhibitor,” Proc. Nati. Acad. Sci. USA, Vol. 91, pp. 4096-4100 (April 1994).

[2] = target: T1, HIV-1 protease (wild type) (Human immunodeficiency virus type 1 group M subtype B, UniProt P04585); assay: Protease Inhibition Assay (Pepcleave), inhibition of microbial expressed HIV protease; format: biochemical
T1 construct: made in house; host or cells: Escherichia coli
Description: Assay for Inhibition of Microbial Expressed HIV Protease
Inhibition studies of the reaction of the protease (which was expressed in Eschericia coli) with a peptide substrate [Val-Ser-Gln-Asn-(betanaphtyl)Ala-Pro-Ile-Val]. The inhibitor is first preincubated with the HIV-1 protease (wild type) enzyme in assay buffer (50 mM sodium acetate, pH 5.5, 100 mM NaCl, and 0.1% BSA) for 30 minutes at room temperature. Substrate is added to 400 micromolar in a total volume of 80 microliters containing 10 picomolar HIV-1 protease and the reaction is incubated for 1 hour at 30° C. The reaction is quenched with the addition of 120 microliters of 10% phosphoric acid. The product formation is determined after separation of product and substrate on a Zorbax Eclipse XDB-C18 column connected to an Agilent 1100 high performance liquid chromatography system with fluorescence detection (excitation 270 nanometer and emission 330 nanometer). Alternatively, the inhibitor is preincubated with enzyme and substrate as described above, but in a total volume of 20 microliters containing 20 picomolar HIV-1 protease and the reaction is incubated for 1 hour at 30° C. The reaction is quenched with the addition of 30 microliters of 1 micromolar indinavir (indinavir is also used as an internal standard), and the product formation is determined after separation of product and substrate on a Zorbax Eclipse XDB-C18 column connected to an API 4000 mass spectrometer (Applied Biosystems) with multiple reaction monitoring (transitions were 644.5/428.9 and 615.4/422.2 (M1/M3) for product and indinavir respectively). The extent of inhibition of the reaction is determined from the peak area of the products. HPLC of the products, independently synthesized, provided quantitation standards and confirmation of the product composition.
Protease Inhibition Assay (“Pepcleave”) data were collected based on the wild-type HIV-1 protease enzyme. The assay monitors the cleavage of a 8-mer peptide (VSQN[β-Nal]PIV) where the tyrosine at P1 position is replaced by β-Naphthyl-alanine. Upon cleavage of the peptide by HIV-1 protease, the product is separated from substrate by HPLC column and detected at Ex.=270 nm/Em=330 nm.

[3] = wild-type HIV-1 protease, mean of at least two independent experiments, read-out: Pepcleave Enzyme inhibition IC50

## COC(=O)N[C@H](C(=O)Nc1ccccc1CC[C@@H](CO)N(C(C)C)S(=O)(=O)c1ccc(N)cc1)C(c1ccccc1)c1ccccc1 [Example 2, N-{2-[(3S)-3-{[(4-aminophenyl)sulfonyl](propan-2-yl)amino}-4-hydroxybutyl]phenyl}-Nα-(methoxycarbonyl)-β-phenyl-L-phenylalaninamide]
[1]
  IC95: 0.919 µM
[2]
  IC50: 1.2 nM

## COC(=O)N[C@H](C(=O)Nc1ccccc1CC[C@@H](CO)N(CCC(C)C)S(=O)(=O)c1ccc2ncsc2c1)C(c1ccccc1)c1ccccc1 [Example 9, N-(2-{(3S)-3-[(1,3-benzothiazol-6-ylsulfonyl)(3-methylbutyl)amino]-4-hydroxybutyl}phenyl)-Nα-(methoxycarbonyl)-β-phenyl-L-phenylalaninamide]
[1]
  IC95: 0.957 µM
[2]
  IC50: 0.3 nM

## COC(=O)N[C@H](C(=O)Nc1cnccc1SC[C@@H](CO)N(Cc1cn(C)nc1C)S(=O)(=O)c1ccc2ncsc2c1)C(c1ccccc1)c1ccccc1 [Example 26, N-(4-{[(2R)-2-{(1,3-benzothiazol-6-ylsulfonyl)[(1,3-dimethyl-1H-pyrazol-4-yl)methyl]amino)-3-hydroxypropyl)sulfanyl}pyridin-3-yl)-Nα-(methoxycarbonyl)-β-phenyl-L-phenylalaninamide]
[1]
  IC95: 1.26 µM
[2]; [3]
  IC50: 0.4 nM

## COC(=O)N[C@H](C(=O)Nc1ccccc1CC[C@@H](CO)N(CCC(C)C)S(=O)(=O)c1ccc(N)cc1)C(c1ccccc1)c1ccccc1 [Example 1, N-{2-[(3S)-3-{[(4-aminophenyl)sulfonyl](3-methylbutyl)amino}-4-hydroxybutyl]phenyl}-Nα-(methoxycarbonyl)-β-phenyl-L-phenylalaninamide]
[1]
  IC95: 0.074 µM
[2]; [3]
  IC50: 0.02 nM

## COC(=O)N[C@H](C(=O)Nc1ccccc1CC[C@@H](CO)N(Cc1cn(C)nc1C)S(=O)(=O)c1ccc2ncsc2c1)C(c1ccccc1)c1ccccc1 [Example 11, N-{2-[(3S)-3-{(1,3-benzothiazol-6-ylsulfonyl)[(1,3-dimethyl-1H-pyrazol-4-yl)methyl]amino}-4-hydroxybutyl]phenyl}-Nα-(methoxycarbonyl)-β-phenyl-L-phenylalaninamide]
[1]
  IC95: 0.683 µM
[2]
  IC50: 0.05 nM

## COC(=O)N[C@H](C(=O)Nc1cnccc1CC[C@@H](CO)N(Cc1cncnc1C)S(=O)(=O)c1ccc2ncsc2c1)C(c1ccccc1)c1ccccc1 [Example 20, N-{4-[(3S)-3-{(1,3-benzothiazol-6-ylsulfonyl)[(4-methylpyrimidin-5-yl)methyl]amino}-4-hydroxybutyl]pyridin-3-yl}-Nα-(methoxycarbonyl)-β-phenyl-L-phenylalaninamide]
[1]
  IC95: 2.2 µM
[2]; [3]
  IC50: 3.5 nM

## [2H]C([2H])([2H])C([2H])([2H])C([2H])([2H])N([C@H](CO)CCc1ccccc1NC(=O)[C@@H](NC(=O)OC)C(c1ccccc1)c1ccccc1)S(=O)(=O)c1ccc2ncsc2c1 [Example 10, N-(2-{(3S)-3-[(1,3-benzothiazol-6-ylsulfonyl)(propyl-d7)amino]-4-hydroxybutyl}phenyl)-Nα-(methoxycarbonyl)-β-phenyl-L-phenylalaninamide]
[1]
  IC95: 1.19 µM
[2]
  IC50: 0.7 nM

## COC(=O)N[C@H](C(=O)Nc1ccccc1SC[C@@H](CO)N(CCC(C)C)S(=O)(=O)c1ccc(N)cc1)C(c1ccccc1)c1ccccc1 [Example 28, N-(2-{[(2R)-2-{[(4-aminophenyl)sulfonyl](3-methylbutyl)amino}-3-hydroxypropyl]sulfanyl}phenyl)-Nα-(methoxycarbonyl)-β-phenyl-L-phenylalaninamide]
[1]
  IC95: 0.194 µM
[2]; [3]
  IC50: 0.1 nM

## COC(=O)N[C@@H](Cc1ccccc1Cl)C(=O)Nc1ccccc1CC[C@@H](CO)N(CCC(C)C)S(=O)(=O)c1ccc(N)cc1 [Example 14, N-{2-[(3S)-3-{[(4-aminophenyl)sulfonyl](3-rnethylbutyl)amino}-4-hydroxybutyl]phenyl}-2-chloro-Nα-(methoxycarbonyl)-L-phenylalaninamide]
[1]
  IC95: 1.18 µM
[2]; [3]
  IC50: 1.2 nM

## COC(=O)N[C@H](C(=O)Nc1c(SC[C@@H](CO)N(CCC(C)C)S(=O)(=O)c2ccc(N)cc2)cc[nH]c1=O)C(c1ccccc1)c1ccccc1 [Example 23, N-(4-{[(2R)-2-{[(4-aminophenyl)sulfonyl](3-methylbutyl)amino}-3-hydroxypropyl]sulfanyl}-2-oxo-1,2-dihydropyridin-3-yl)-Nα-(methoxycarbonyl)-β-phenyl-L-phenyl alaninamide]
[1]
  IC95: 2.5 µM
[2]; [3]
  IC50: 0.06 nM

## COC(=O)N[C@H](C(=O)Nc1ccccc1CC[C@@H](CO)N(CC1CC(F)(F)C1)S(=O)(=O)c1ccc2ncsc2c1)C(c1ccccc1)c1ccccc1 [Example 12, N-{2-[(3S)-3-{(1,3-benzothiazol-6-ylsulfonyl)[(3,3-difluorocyclobutyl)methyl]amino}-4-hydroxybutyl]phenyl}-Nα-(methoxycarbonyl)-β-phenyl-L-phenylalaninamide]
[1]
  IC95: 1.53 µM
[2]; [3]
  IC50: 0.9 nM

## COC(=O)N[C@H](C(=O)Nc1ccccc1CC[C@@H](CO)N(Cc1cnoc1)S(=O)(=O)c1ccc(N)cc1)C(c1ccccc1)c1ccccc1 [Example 4]
[1]
  IC95: 0.838 µM
[2]
  IC50: 0.2 nM

## COC(=O)N[C@H](C(=O)Nc1cccnc1CC[C@@H](CO)N(Cc1cnoc1)S(=O)(=O)c1ccc2ncsc2c1)C(c1ccccc1)c1ccccc1 [Example 18, N-(2-{(3S)-3-[(1,3-benzothiazol-6-ylsulfonyl)(isoxazol-4-ylmethyl)amino]-4-hydroxybutyl}pyridin-3-yl)-Nα-(methoxycarbonyl)-β-phenyl-L-phenylalaninamide]
[1]
  IC95: 0.755 µM
[2]; [3]
  IC50: 2.3 nM

## COC(=O)N[C@H](C(=O)Nc1cnccc1SC[C@@H](CO)N(Cc1cnoc1)S(=O)(=O)c1ccc2ncsc2c1)C(c1ccccc1)c1ccccc1 [Example 27, N-[4-({(2R)-2-[(1,3-benzothiazol-6-ylsulfonyl)(isoxazol-4-ylmethyl)amino]-3-hydroxypropyl}sulfanyl)pyridin-3-yl]-Nα-(methoxycarbonyl)-β-phenyl-L-phenylalaninamide]
[1]
  IC95: 1.5 µM
[2]; [3]
  IC50: 6.9 nM

## [2H]C([2H])([2H])C([2H])(C([2H])([2H])[2H])C([2H])([2H])N([C@H](CO)CCc1ccccc1NC(=O)[C@@H](NC(=O)OC)C(c1ccccc1)c1ccccc1)S(=O)(=O)c1ccc2ncsc2c1 [Example 8, N-(2-{(3S)-3-[(1,3-benzothiazol-6-ylsulfonyl)(2-methylpropyl-d9)amino]-4-hydroxybutyl}phenyl)-Nα-(methoxycarbonyl)-β-phenyl-L-phenylalaninamide]
[1]
  IC95: 1.55 µM
[2]
  IC50: 1.7 nM

## COC(=O)N[C@H](C(=O)Nc1ccccc1CC[C@@H](CO)N(Cc1cncnc1C)S(=O)(=O)c1ccc(N)cc1)C(c1ccccc1)c1ccccc1 [Example 5, N-{2-[(3S)-3-{[(4-aminophenyl)sulfonyl][(4-methylpyrimidin-5-yl)methyl]amino}-4-hydroxybutyl]phenyl}-Nα-(methoxycarbonyl)-β-phenyl-L-phenylalaninamide]
[1]
  IC95: 1.19 µM
[2]
  IC50: 0.7 nM
